Assay results from patent US11541049B2, “Tetrahydroisoquinoline derivatives, preparation process and use thereof” (SICHUAN KELUN-BIOTECH BIOPHARMACEUTICAL CO., LTD., priority 2018, dated 2023).

Experiments:
[1] = Pharmacokinetics study in male SD rats, intravenous injection; format: in vivo; settings: male, SD, rat, plasma, rats, 5 mg/kg
Description: (§1) Pharmacokinetics characteristics were examined by administering compound of the present disclosure and the reference compound (BMS-962212) to male SD rats through intravenous injection (IV). Blood was collected at various time points after administration. The blood was anticoagulated with EDTA-K2. Plasma samples were obtained by centrifugation within 30 min after blood collection, and retained at −80° C. The plasma samples were processed to precipitate the proteins and then analyzed by LC-MS/MS.
(§2) The pharmacokinetic parameters were calculated using WinNonlin 6.3 software by employing a non-compartmental model.

[2] = Pharmacokinetics study in male rabbits, intravenous injection; format: in vivo; settings: male, rabbit, plasma, 1 mg/kg
Description: as §1, with “properties” for “characteristics”, “rabbits” for “SD rats”, “centrifugation,” for “centrifugation within 30 min after blood collection,”
as §2

[3] = Pharmacokinetics study in Beagle dogs, intravenous injection; format: in vivo, Beagle dog; settings: dog, plasma, 0.5 mg/kg
Description: as §1, with “properties” for “characteristics”, “Beagle dog” for “male SD rats”, “centrifugation,” for “centrifugation within 30 min after blood collection,”
as §2

[4] = Repeated dose toxicity study in SD rats, intravenous infusion, daily for 14 days; format: in vivo; settings: rat, in vivo, daily for 14 days, SD rats, read-out: No-observed-adverse-effect level (NOAEL)
Description: (§3) The administration was repeated daily for 14 days, while clinical observation, body weight and food intake were recorded. […] Observation by gross anatomy and examination of histopathology were also conducted.

SD rats [5] = assay: as above; format: in vivo; settings: 60 mg/kg
Description: as §3

[6] = Single dose toxicity study in SD rats, intravenous infusion; settings: SD, rat, in vivo, iv
Description: (§4) The clinical observation was carried out for 7 days after a single dose, and the body weight of the animals were measured. On the 8th day, blood samples were taken after anesthesia for detection of hematology, blood biochemistry, coagulation and other indicators. Observation was also conducted by gross anatomy.

SD rats [7] = assay: as above; settings: intravenous infusion (2 ml/min)
Description: as §4

[8] = biological target: human coagulation factor XIa (Homo sapiens (Human), UniProt P03951); assay: Inhibition of coagulation factor XIa (fluorogenic substrate, enzyme kinetic mode); format: biochemical
Chain of human coagulation factor XIa (P03951 388-625): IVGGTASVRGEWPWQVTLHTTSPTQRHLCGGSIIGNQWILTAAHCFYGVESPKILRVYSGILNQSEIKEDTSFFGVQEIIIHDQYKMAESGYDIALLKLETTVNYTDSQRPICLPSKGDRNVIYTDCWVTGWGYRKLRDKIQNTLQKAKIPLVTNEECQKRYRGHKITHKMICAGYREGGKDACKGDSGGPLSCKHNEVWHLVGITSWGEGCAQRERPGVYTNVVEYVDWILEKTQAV
Chain of human coagulation factor XIa (P03951 19-387): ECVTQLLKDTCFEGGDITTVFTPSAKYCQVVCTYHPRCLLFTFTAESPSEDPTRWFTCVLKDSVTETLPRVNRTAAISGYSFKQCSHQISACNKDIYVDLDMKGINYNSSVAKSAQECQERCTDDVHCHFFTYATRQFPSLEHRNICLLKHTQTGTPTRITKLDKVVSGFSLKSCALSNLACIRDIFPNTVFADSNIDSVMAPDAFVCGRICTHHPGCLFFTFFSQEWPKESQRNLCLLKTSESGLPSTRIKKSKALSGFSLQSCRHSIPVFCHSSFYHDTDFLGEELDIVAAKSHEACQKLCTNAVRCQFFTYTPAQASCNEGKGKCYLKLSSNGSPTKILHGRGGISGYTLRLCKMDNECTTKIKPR
Description: The following procedures can be used to determine the in vitro inhibition of human coagulation factor XIa by the compound of the present disclosure, as indicated by IC50.
Enzyme: human coagulation factor XIa; manufacturer: Haemtech;
Substrate: Boc-Ile-Glu-Gly-Arg-AMC Acetate salt; manufacturer: Bachem;
Reaction buffer: 50 mM HEPES, 145 mM NaCl, 5 mM KCl, 0.1% BSA, pH 7.4;
The test compounds were dissolved in reaction buffer at different concentrations. 4 μl of coagulation factor XIa and 4 μl of the test compound were added to a 384 well plate, incubated at room temperature for 10 minutes after mixed thoroughly, and then 4 μl of substrate was added to initiate the reaction. For reading fluorescence signal value, enzyme kinetic mode was used. The wavelength of excitation light was selected to be 380 nm, and the wavelength of emission light was selected to be 460 nm. Read once per 30 seconds, and continuously read 20 cycles. Linear regression analysis of signal value-time was performed during the linear reaction period, and the slope was the reaction rate, and the enzyme activity inhibition rate was calculated according to the following formula. The half inhibitory concentration IC50 values of the compound were fitted using GraphPad Prism 5 software, and results are shown in Table 1. Inhibition rate %=(V0−Vi)/(V0−Vblank)×100.
In the formula: V0 is the reaction rate of the control well (using the same volume of reaction buffer without adding test compound), Vi is the reaction rate of test compound, Vblank is a blank well (using the same volume of reaction buffer without adding either enzyme or test compound).

In the case of `CN1CCN(c2cccc3c2CCN(C(=O)/C=C/c2c(-n4cnnn4)ccc(Cl)c2F)[C@@H]3C(=O)Nc2ccc(C(=O)O)cc2)C(=O)C1` [BMS-962212, reference compound], the AUC(0-inf) [1] is reported as 4090 ± 654 ng·h/mL, the AUC(0-t) [1] is reported as 4090 ± 654 ng·h/mL and the Cmax [1] is reported as 11100 ± 1850 ng/mL. It also gave a clearance [1] of 20.7 ± 2.7 mL/min/kg, a half-life [1] of 11.4 ± 1.8 min and an AUC(0-inf) [2] of 484 ± 38 ng·h/mL. For the same compound, the AUC(0-t) [2] was 476 ± 35 ng·h/mL, the Cmax [2] was 1470 ± 145 ng/mL and the Vd [2] was 1.28 ± 0.28 L/kg. It also gave a clearance [2] of 34.6 ± 2.8 mL/min/kg, a half-life [2] of 25.8 ± 6.6 min and an AUC(0-inf) [3] of 846 ± 80 ng·h/mL. The AUC(0-t) [3] was 846 ± 80 ng·h/mL, the Cmax [3] was 1480 ± 40 ng/mL and the Vd [3] was 0.71 ± 0.04 L/kg. The clearance [3] was 9.91 ± 0.94 mL/min/kg, the half-life [3] was 49.8 ± 3 min and the NOAEL at 14 days [4] was under 60 mg/kg. For the same compound, the “Repeated dose toxicity study in SD rats: females died (10th and 12th day of the administration)” value (SD rats [5]; daily) was “female animals. Two”, the “Repeated dose toxicity study in SD rats: body weight finding” value (SD rats [5]; daily for 14 days, female animals) was “Significant weight loss” and the MTD at 7 days [6] was 70 mg/kg. The “Single dose toxicity study in SD rats: observation” value (SD rats [7]; 50 mg/kg) was “No abnormality was”, the “Single dose toxicity study in SD rats: observation” value (SD rats [7]; 70 mg/kg) was “obviously hypoactive” and the “Single dose toxicity study in SD rats: observation” value (SD rats [7]; 75 mg/kg) was “high mortality”. The “Single dose toxicity study in SD rats: observation” value (SD rats [7]; 75 mg/kg, listed as Reference compound) was “Death of the animals”.
In the case of `CC(C)[C@H](N)C(=O)N1CC=C(c2cccc3c2CCN(C(=O)[C@H]2CC(c4cccc(Cl)c4F)=NO2)[C@@H]3C(=O)Nc2ccc(C(=O)O)cc2)CC1` [Example 1, 4-((S)-5-(1-((S)-2-amino-3-methylbutanoyl)-1,2,3,6-tetrahydropyridin-4-yl)-2-((R)-3-(3-chloro-2-fluorophenyl)-4,5-dihydroisoxazole-5-carbonyl)-1,2,3,4-tetrahydroisoquinoline-1-carboxamido)benzoic acid], the IC50 [8] is reported as 0.33 ± 0.06 nM.
`N[C@@H](CCC(=O)N1CC=C(c2cccc3c2CCN(C(=O)[C@H]2CC(c4cccc(Cl)c4F)=NO2)[C@@H]3C(=O)Nc2ccc(C(=O)O)cc2)CC1)C(=O)O` [Example 2, 4-((S)-5-(1-((S)-4-amino-4-carboxybutanoyl)-1,2,3,6-tetrahydropyridin-4-yl)-2-((R)-3-(3-chloro-2-fluorophenyl)-4,5-dihydroisoxazole-5-carbonyl)-1,2,3,4-tetrahydroisoquinoline-1-carboxamido)benzoic acid] showed an IC50 [8] of 0.21 ± 0.02 nM.
`N[C@@H](CCC(=O)O)C(=O)N1CC=C(c2cccc3c2CCN(C(=O)[C@H]2CC(c4cccc(Cl)c4F)=NO2)[C@@H]3C(=O)Nc2ccc(C(=O)O)cc2)CC1` [Example 3, 4-((S)-5-(1-((S)-2-amino-4-carboxybutanoyl)-1,2,3,6-tetrahydropyridin-4-yl)-2-((R)-3-(3-chloro-2-fluorophenyl)-4,5-dihydroisoxazole-5-carbonyl)-1,2,3,4-tetrahydroisoquinoline-1-carboxamido)benzoic acid] gave an IC50 [8] of 0.29 ± 0.04 nM.
Work on `C[C@H](N)C(=O)N1CC=C(c2cccc3c2CCN(C(=O)[C@H]2CC(c4cccc(Cl)c4F)=NO2)[C@@H]3C(=O)Nc2ccc(C(=O)O)cc2)CC1` [Example 4, 4-((S)-5-(1-((S)-2-aminopropanoyl)-1,2,3,6-tetrahydropyridin-4-yl)-2-((R)-3-(3-chloro-2-fluorophenyl)-4,5-dihydroisoxazole-5-carbonyl)-1,2,3,4-tetrahydroisoquinoline-1-carboxamido)benzoic acid] yielded an IC50 [8] of 0.85 ± 0.03 nM.
